{"source": "patent US12673044B2", "about": "“Methods of treating borderline personality disorder” (ORYZON GENOMICS, S.A., priority 2019, dated 2026)", "key": {"[1]": {"test_system": "BPD patients", "test": "Phase IIa REIMAGINE trial, BPD cohort: efficacy by Borderline Personality Disorder Checklist (BPDCL)", "format": "in vivo, human", "details": "5 BPD patients, 1.2 mg/day oral free base, 5 days on/2 days off, 8 weeks, paired one-tail t-test", "source_text": "(§1) As part of a Phase IIa clinical trial (REIMAGINE trial, EudraCT number 2018-002140-88) to evaluate the safety, tolerability and efficacy of the KDM1A inhibitor vafidemstat to treat aggression in adult population in patients with different CNS disorders, a cohort of BPD patients was recruited and treated with vafidemstat for 8 weeks. A summary of the protocol of this clinical trial and results obtained in the BPD cohort are provided below.\n(§2) Reimagine is a unicenter, open-label, 1-arm, 8-week clinical study to evaluate the efficacy, safety and tolerability of vafidemstat in aggression in adult population with Alzheimer's Disease (AD), Lewy Body Dementia (LBD), Adult attention Deficit Hyperactivity Disorder (ADHD), Borderline Personality Disorder (BPD) and Autism Spectrum Disorder (ASD). Six patients to be recruited per disorder.\nTreatment: All patients received vafidemstat (as free base) at a dose of 1.2 mg/day, administered orally as a single capsule, in a 5 days on/2 days off schedule, during 8 weeks.\nSix BPD patients were recruited, but there was one drop-out, and therefore the results as described herein correspond to the 5 BPD subjects eligible for analysis. A summary of the patients recruited in this BPD cohort (demographic data at baseline) can be found in Table 1.\nAssessment of efficacy of treatment in BPD patients was performed using a validated scale specific for BPD, the Borderline Personality Disorder Checklist (BPDCL). The BPDCL is an instrument specifically designed to evaluate the subjective burden of BPD in the last month and also to rate BPD changes after therapeutic intervention. Originally developed in Dutch, the BPDCL has been subsequently translated into English, Spanish and other languages, and has been applied to clinical and non-clinical samples. […]\nOne can use the total sum score on the BPDCL (BPDCL Total Score) as an overall index of the subjective burden caused by BPD symptoms, or one can use sum scores for one or more of the separate BPD domains. […] Efficacy assessments were always measured prior to treatment administration on the corresponding visit day. […]"}, "[2]": {"test_system": "BPD patients", "test": "Phase IIa REIMAGINE trial, BPD cohort: safety and tolerability", "format": "in vivo, human", "details": "1.2 mg/day oral free base, 5 days on/2 days off, 8 weeks; without significant adverse events", "source_text": "as §1, §2\nMain objective of the trial: To evaluate the safety and tolerability of vafidemstat in adult population with Alzheimer's Disease (AD), Lewy Body Dementia (LBD), Adult attention deficit hyperactivity disorder (ADHD), Borderline Personality Disorder (BPD), Autism Spectrum Disorder (ASD)\nTreatment: All patients received vafidemstat (as free base) at a dose of 1.2 mg/day, administered orally as a single capsule, in a 5 days on/2 days off schedule, during 8 weeks. […]"}}}
{"smiles": "Nc1nnc(CN[C@@H]2C[C@H]2c2ccc(OCc3ccccc3)cc2)o1", "note": "[vafidemstat, 5-((((1R,2S)-2-(4-(benzyloxy)phenyl)cyclopropyl)amino)methyl)-1,3,4-oxadiazol-2-amine]", "values": [{"measurement": "Aggression-related BPDCL domains combined score (anger control, impulsivity, (para)suicide), change from visit 1 (baseline) to visit 7", "setting": "[1]; p=0.0029, FIG. 1", "value": "statistically significant reduction"}, {"measurement": "BPDCL Total score, change from visit 1 (baseline) to visit 7", "setting": "[1]; p=0.0048, FIG. 2", "value": "statistically significant reduction"}, {"measurement": "Non-aggression-related BPDCL domains combined score (abandonment, relationships, identity disturbance, affective instability, emptiness, dissociation), change from visit 1 (baseline) to visit 7", "setting": "[1]; p=0.0234, FIG. 3", "value": "statistically significant reduction"}, {"measurement": "Safety and tolerability of treatment in BPD patients", "setting": "[2]", "value": "safe and well tolerated"}]}
